Data taken from the supplement of paper PMC10331698.
± gives the standard deviation of the averaged measurements.

What was measured:
Experiment in all cases: level (log10 ratio to DMSO vehicle control); higher = higher biomarker level / cell amount than vehicle control
Settings in all cases: in DMSO
Heptafluorobutyramide = compound: NC(=O)C(F)(F)C(F)(F)C(F)(F)F [Heptafluorobutyramide]
Experimental: (§1)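 BioMAP Diversity Plus panel of 12 human primary cell co-culture systems (3C, 4H, LPS, SAg, BT, BF4T, BE3C, CASM3C, HDF3CGF, KF3CT, MyoF, Mphg). Compounds were added 1 h before stimulation and left for 24 h (MyoF 48 h; BT 72 h for soluble read-outs or 6 d for IgG). Biomarkers were read by ELISA, cytotoxicity by SRB, PBMC viability and proliferation by Alamar Blue. Each well value was divided by the mean of 8 DMSO control wells on the same plate and log10 transformed; duplicate blinded samples were tested at 4 concentrations.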

[1] = compound: O=C(O)C(F)(F)OC(F)(F)C(F)(F)OC(F)(F)C(=O)O [Perfluoro-3,6-dioxaoctane-1,8-dioic acid]
Experimental: as §1

[2] = compound: C=C(C)C(=O)OCCC(F)(F)C(F)(F)C(F)(F)C(F)(F)C(F)(C(F)(F)F)C(F)(F)F [(Perfluoro-5-methylhexyl)ethyl 2-methylprop-2-enoate]
Experimental: as §1

Perfluoroheptanoic acid = compound: O=C(O)C(F)(F)C(F)(F)C(F)(F)C(F)(F)C(F)(F)C(F)(F)F [Perfluoroheptanoic acid]
Experimental: as §1

[3] = compound: FC(F)(F)C(F)(F)C(F)(F)C(F)(F)C(F)(F)CCI [1-Iodo-1H,1H,2H,2H-perfluoroheptane]
Experimental: as §1

[4] = compound: FC(F)C(F)(F)COCC1CO1 [((2,2,3,3-Tetrafluoropropoxy)methyl)oxirane]
Experimental: as §1

[5] = compound: O=C(O)C(F)(F)C(F)(F)C(F)F [4H-Perfluorobutanoic acid]
Experimental: as §1

| Test System | level (log10) (Heptafluorobutyramide; 6700 nM) | level (log10) (Heptafluorobutyramide; 20000 nM) | level (log10) (Heptafluorobutyramide; 60000 nM) | level (log10) ([1]; 6700 nM) | level (log10) ([1]; 20000 nM) | level (log10) ([1]; 60000 nM) | level (log10) ([2]; 6700 nM) | level (log10) ([2]; 20000 nM) | level (log10) (Perfluoroheptanoic acid; 6700 nM) | level (log10) (Perfluoroheptanoic acid; 20000 nM) | level (log10) (Perfluoroheptanoic acid; 60000 nM) | level (log10) ([3]; 6700 nM) | level (log10) ([3]; 20000 nM) | level (log10) ([3]; 60000 nM) | level (log10) ([4]; 6700 nM) | level (log10) ([4]; 20000 nM) | level (log10) ([4]; 60000 nM) | level (log10) ([5]; 6700 nM) | level (log10) ([5]; 20000 nM) | level (log10) ([5]; 60000 nM) |
| --- | --- | --- | --- | --- | --- | --- | --- | --- | --- | --- | --- | --- | --- | --- | --- | --- | --- | --- | --- | --- |
| SAg:CXCL9/MIG | 0.0075 ± 0.0021 | -0.0025 ± 0.012 | 0.0005 ± 0.013 | -0.0065 ± 0.005 | 0.004 ± 0.0057 | -0.001 ± 0.013 | 0.002 ± 0.0085 | 0.015 ± 0.0042 | -0.0125 ± 0.0078 | 0.0015 ± 0.0064 | 0.0105 ± 0.011 | -0.005 ± 0.013 | -0.0145 ± 0.0092 | 0.0005 ± 0.012 | -0.002 ± 0.011 | -0.006 ± 0.014 | 0.0065 ± 0.0092 | -0.0115 ± 0.00071 | -0.0035 ± 0.0078 | 0.0095 ± 0.016 |
| 4H:CCL26/Eotaxin-3 | 0.0315 ± 0.021 | 0.0345 ± 0.0035 | 0.0185 ± 0.019 | 0.0045 ± 0.022 | 0.017 ± 0.021 | 0.0085 ± 0.0092 | 0.042 ± 0.058 | 0.039 ± 0.02 | 0.0055 ± 0.0064 | 0.0045 ± 0.0092 | -0.015 ± 0.0085 | 0.007 ± 0.017 | 0 ± 0.014 | -0.009 | 0.0035 ± 0.0078 | 0 ± 0.041 | 0.014 ± 0.05 | -0.0165 ± 0.012 | -0.008 ± 0.011 | 0.008 ± 0.0085 |
| BE3C:IL-1alpha | -0.0085 ± 0.052 | 0.027 ± 0.037 | -0.004 ± 0.076 | 0.0105 ± 0.0092 | 0.013 ± 0.0099 | 0.0235 ± 0.063 | -0.017 ± 0.0057 | -0.009 ± 0.0014 | -0.0185 ± 0.029 | -0.0065 ± 0.03 | 0.0115 ± 0.0064 | -0.0085 ± 0.016 | -0.005 ± 0.013 | -0.012 ± 0.0085 | 0.0015 ± 0.029 | -0.0015 ± 0.0078 | -0.008 ± 0.014 | -0.0325 ± 0.0064 | -0.018 ± 0.025 | -0.0045 ± 0.079 |
| BT:sTNF-alpha | 0.0705 ± 0.096 | -0.057 ± 0.025 | -0.0225 ± 0.0035 | -0.0245 ± 0.043 | -0.139 ± 0.035 | -0.019 ± 0.2 | 0.0485 ± 0.1 | 0.0945 ± 0.03 | -0.0045 ± 0.11 | -0.0405 ± 0.05 | -0.064 ± 0.17 | -0.02 ± 0.038 | 0.063 ± 0.055 | -0.114 ± 0.052 | 0.0865 ± 0.025 | 0.0615 ± 0.023 | -0.0195 ± 0.0021 | -0.0585 ± 0.022 | -0.055 ± 0.0071 | -0.048 ± 0.13 |
| 4H:CCL2/MCP-1 | -0.026 ± 0.013 | -0.0325 ± 0.022 | 0.004 ± 0.095 | 0.003 ± 0.041 | -0.032 ± 0.018 | 0.0205 ± 0.0035 | -0.0135 ± 0.011 | 0.002 ± 0.0042 | -0.0115 ± 0.0064 | -0.0165 ± 0.013 | 0.025 ± 0.024 | 0.005 | -0.0045 ± 0.029 | 0.0325 ± 0.035 | 0.021 ± 0.023 | -0.0005 ± 0.042 | 0.0235 ± 0.066 | -0.066 ± 0.047 | -0.0555 ± 0.029 | -0.0005 ± 0.028 |
| BT:sIL-2 | 0.068 ± 0.017 | -0.041 ± 0.059 | 0.0165 ± 0.0092 | 0.004 ± 0.027 | -0.017 ± 0.05 | -0.002 ± 0.041 | -0.0185 ± 0.025 | -0.0245 ± 0.039 | -0.0105 ± 0.14 | 0.0035 ± 0.037 | -0.008 ± 0.075 | -0.068 ± 0.0042 | 0.027 ± 0.047 | -0.15 ± 0.073 | 0.084 ± 0.067 | -0.005 ± 0.067 | 0.017 ± 0.13 | 0.0065 ± 0.054 | -0.0275 ± 0.14 | -0.056 ± 0.017 |
| BF4T:CD90 | 0.002 ± 0.013 | -0.008 ± 0.0085 | 0.003 ± 0.0042 | -0.012 ± 0.0028 | -0.0085 ± 0.005 | -0.004 ± 0.0028 | 0.011 | 0 ± 0.0085 | -0.01 ± 0.0042 | -0.001 ± 0.0014 | -0.0005 ± 0.0021 | 0.0025 ± 0.00071 | -0.001 ± 0.0028 | 0.013 ± 0.0028 | -0.006 ± 0.03 | 0.004 ± 0.0057 | 0.014 ± 0.016 | 0.0045 ± 0.0035 | 0.0095 ± 0.011 | 0.01 ± 0.028 |
